Values of other authors as cited in patent US20070141149A1, “Controlled-release pharmaceutical formulation” (priority 2003, published 2007).
Like-named read-outs stand apart in the source and are kept apart here.

Conditions: orally administered

For `CCOc1ccccc1OCCN[C@H](C)Cc1ccc(OC)c(S(N)(=O)=O)c1` [tamsulosin], the bioavailability (on an empty stomach) is given as about 100%, the bioavailability (taken during meals) is given as “decreased” and the cmax (taken during meals) is given as “decreased”.
